pIC50, pKi: −log10 of the molar value. Converted amounts (≈) assume the structure as drawn.

Results on 22 compounds are retold here after ChEMBL document CHEMBL1158437, “The discovery of the potent aurora inhibitor MK-0457 (VX-680)” (Bioorg Med Chem Lett, 2009).

In the first data set the target is T1, Aurora kinase B (Homo sapiens, UniProt Q96GD4). The data set is described as follows: Inhibition of Aurora-B by time dependent kinetic study.
T1 sequence (Q96GD4 whole entry): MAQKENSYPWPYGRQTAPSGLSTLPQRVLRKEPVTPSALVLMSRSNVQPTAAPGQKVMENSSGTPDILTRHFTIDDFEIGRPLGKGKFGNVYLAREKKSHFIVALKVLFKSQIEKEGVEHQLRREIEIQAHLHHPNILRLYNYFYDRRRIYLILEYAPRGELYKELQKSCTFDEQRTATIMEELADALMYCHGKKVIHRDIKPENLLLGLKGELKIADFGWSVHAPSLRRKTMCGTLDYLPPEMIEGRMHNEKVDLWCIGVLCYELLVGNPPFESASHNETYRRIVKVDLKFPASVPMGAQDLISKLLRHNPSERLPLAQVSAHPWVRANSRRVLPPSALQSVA
Settings: not given
Compound `CCC(=O)Nc1ccc(Sc2nc(Nc3cc(C)n[nH]3)cc(N3CCN(C(C)(C)C)CC3)n2)cc1` had a pKi of 9.10.

The next data set relates to COLO 205. The data set is described as follows: Antiproliferative activity against human COLO205 cells by [3H]thymidine uptake assay. In kind it is functional, cell-based.
Settings: not given
The compound `CCC(=O)Nc1ccc(Sc2nc(Nc3cc(C)[nH]n3)cc(-c3ccncc3)n2)cc1` had a pIC50 of 6.00.

Compound `CC(=O)N(C)c1ccc(Sc2nc(Nc3cc(C)[nH]n3)c3ccccc3n2)cc1` had a pIC50 of 5.24.

Take `Cc1cc(Nc2nc(Sc3ccc(NC(=O)C4CC4)cc3)nc3ccccc23)n[nH]1`: the pIC50 is 6.04.

On to `CCC(=O)Nc1ccc(Sc2nc(Nc3cc(C)n[nH]3)cc(C3CC3)n2)cc1`, for which the pIC50 was 5.85.

In turn, `CC(=O)Nc1ccc(Sc2nccc(Nc3cc(C)[nH]n3)n2)cc1` gave a pIC50 of 5.39.

`Cc1cc(Nc2nc(Sc3ccc(NC(=O)OC(C)(C)C)cc3)nc3ccccc23)n[nH]1` showed a pIC50 of 5.54.

`CC(=O)Nc1ccc(Sc2nc(Nc3cc[nH]n3)c3ccccc3n2)cc1` gave a pIC50 of 5.66.

Compound `CCC(=O)Nc1ccc(Sc2nc(Nc3cc(C)[nH]n3)cc(-c3cccnc3)n2)cc1` showed a negative logarithm of the IC50 (pIC50) of 6.33.

`Cc1cc(Nc2nc(Sc3ccc(NS(C)(=O)=O)cc3)nc3ccccc23)n[nH]1` had a pIC50 of 6.11.

In turn, `CCC(=O)Nc1ccc(Sc2nc(Nc3cc(C)[nH]n3)cc(C(C)(C)C)n2)cc1` showed a negative logarithm of the IC50 (pIC50) of 5.70.

The compound `CCC(=O)Nc1ccc(Sc2nc(Nc3cc(C)[nH]n3)cc(-c3ccccc3)n2)cc1` showed a negative-log IC50 (pIC50) of 6.06.

On to `CC(=O)Nc1ccc(Sc2nc(C)cc(Nc3cc(C)n[nH]3)n2)cc1`, for which the pIC50 is 5.70.

Regarding `CC(=O)Nc1ccc(Sc2nc(Nc3cc(C4CC4)[nH]n3)c3ccccc3n2)cc1`, the pIC50 was 6.68.

Consider `Cc1cc(Nc2nc(Sc3ccc4ccccc4c3)nc3ccccc23)n[nH]1`, for which the pIC50 was below 4.92.

Consider `CCC(=O)Nc1ccc(Sc2nc(Nc3cc(C)[nH]n3)cc(N3CCC3)n2)cc1`, for which the negative-log IC50 (pIC50) is 6.14.

As for `CCC(=O)Nc1ccc(Sc2nc(Nc3cc(C)[nH]n3)c3ccccc3n2)cc1`, the pIC50 was 6.08.

As for `CCC(=O)Nc1ccc(Sc2nc(C)cc(Nc3cc(C)n[nH]3)n2)cc1`, the pIC50 is 6.14.

For the compound `Cc1cc(Nc2cc(N3CCN(C)CC3)nc(Sc3ccc(NC(=O)C4CC4)cc3)n2)n[nH]1` [TOZASERTIB], the negative logarithm of the IC50 (pIC50) was 7.72.

Still in this data set, the particulars now being: TDE = time-dependent effect.
Turning to `CCC(=O)Nc1ccc(Sc2nc(Nc3cc(C)[nH]n3)cc(N3CCN(C(C)(C)C)CC3)n2)cc1`, the Activity result was “tde”.

In the case of `CCC(=O)Nc1ccc(Sc2nc(Nc3cc(C)[nH]n3)cc(N3CCNCC3)n2)cc1`, the Activity entry was “tde”.

Regarding `CCC(=O)Nc1ccc(Sc2nc(Nc3cc(C)[nH]n3)cc(N3CCN(CC)CC3)n2)cc1`, the Activity result was “tde”.

`Cc1cc(Nc2cc(N3CCN(C)CC3)nc(Sc3ccc(NC(=O)C4CC4)cc3)n2)n[nH]1` [TOZASERTIB]: the Activity entry was “tde”.

A further data set concerns the target T2, Aurora kinase A (Homo sapiens, UniProt O14965).
T2 sequence (O14965 whole entry): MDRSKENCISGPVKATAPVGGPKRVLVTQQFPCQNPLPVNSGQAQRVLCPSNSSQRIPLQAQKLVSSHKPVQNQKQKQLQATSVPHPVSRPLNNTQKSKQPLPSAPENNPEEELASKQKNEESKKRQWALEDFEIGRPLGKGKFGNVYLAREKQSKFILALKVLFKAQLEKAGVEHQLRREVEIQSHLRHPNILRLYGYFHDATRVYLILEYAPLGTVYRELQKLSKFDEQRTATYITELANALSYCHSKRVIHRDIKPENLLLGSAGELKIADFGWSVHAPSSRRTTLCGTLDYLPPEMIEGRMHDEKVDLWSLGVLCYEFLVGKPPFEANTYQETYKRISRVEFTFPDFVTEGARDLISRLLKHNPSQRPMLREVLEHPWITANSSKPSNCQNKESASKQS
Settings: not given
`CCC(=O)Nc1ccc(Sc2nc(Nc3cc(C)[nH]n3)cc(-c3ccncc3)n2)cc1` showed a negative-log Ki (pKi) above 8.52.

In turn, `CC(=O)N(C)c1ccc(Sc2nc(Nc3cc(C)[nH]n3)c3ccccc3n2)cc1` had a negative logarithm of the Ki (pKi) above 9.00.

The compound `CCC(=O)Nc1ccc(Sc2nc(Nc3cc(C)n[nH]3)cc(C3CC3)n2)cc1` gave a negative logarithm of the Ki (pKi) of 8.41.

As to `CC(=O)Nc1ccc(Sc2nccc(Nc3cc(C)[nH]n3)n2)cc1`, the pKi was 7.07.

In turn, `CCC(=O)Nc1ccc(Sc2nc(Nc3cc(C)n[nH]3)cc(N3CCN(C(C)(C)C)CC3)n2)cc1` gave a negative logarithm of the Ki (pKi) of 8.89.

The compound `CCC(=O)Nc1ccc(Sc2nc(Nc3cc(C)[nH]n3)cc(-c3cccnc3)n2)cc1` gave a negative-log Ki (pKi) of 8.41.

`CCC(=O)Nc1ccc(Sc2nc(Nc3cc(C)[nH]n3)cc(C(C)(C)C)n2)cc1` had a pKi of 8.00.

As for `CCC(=O)Nc1ccc(Sc2nc(Nc3cc(C)[nH]n3)cc(-c3ccccc3)n2)cc1`, the negative logarithm of the Ki (pKi) is above 9.00.

For the compound `CC(=O)Nc1ccc(Sc2nc(C)cc(Nc3cc(C)n[nH]3)n2)cc1`, the pKi was 7.74.

Take `CCC(=O)Nc1ccc(Sc2nc(Nc3cc(C)[nH]n3)cc(N3CCC3)n2)cc1`: the pKi is 8.62.

`CCC(=O)Nc1ccc(Sc2nc(C)cc(Nc3cc(C)n[nH]3)n2)cc1` had a pKi of 8.29.

The target of another data set is Glycogen synthase kinase-3 beta (Homo sapiens, UniProt P49841).
Glycogen synthase kinase-3 beta, sequence (P49841 whole entry): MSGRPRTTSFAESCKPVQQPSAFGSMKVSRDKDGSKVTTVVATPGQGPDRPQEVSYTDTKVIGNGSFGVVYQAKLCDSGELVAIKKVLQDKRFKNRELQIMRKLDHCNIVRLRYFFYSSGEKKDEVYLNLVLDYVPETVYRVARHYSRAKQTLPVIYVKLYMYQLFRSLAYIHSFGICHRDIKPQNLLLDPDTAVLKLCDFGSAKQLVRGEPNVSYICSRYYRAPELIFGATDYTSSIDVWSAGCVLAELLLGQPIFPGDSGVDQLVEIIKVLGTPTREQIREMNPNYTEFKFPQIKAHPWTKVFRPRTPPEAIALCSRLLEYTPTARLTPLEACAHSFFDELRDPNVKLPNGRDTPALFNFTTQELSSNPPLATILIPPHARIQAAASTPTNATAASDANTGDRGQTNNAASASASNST
Settings: not given
As for `Cc1cc(Nc2nc(Sc3ccc(NC(=O)OC(C)(C)C)cc3)nc3ccccc23)n[nH]1`, the pKi was below 5.40.

`Cc1cc(Nc2nc(Sc3ccc4ccccc4c3)nc3ccccc23)n[nH]1` had a pKi below 6.82.

The target of a further data set is Proto-oncogene tyrosine-protein kinase Src (Homo sapiens, UniProt P12931). The data set can be described thus: Inhibition of Src.
Proto-oncogene tyrosine-protein kinase Src, sequence (P12931 2-536 limits assumed): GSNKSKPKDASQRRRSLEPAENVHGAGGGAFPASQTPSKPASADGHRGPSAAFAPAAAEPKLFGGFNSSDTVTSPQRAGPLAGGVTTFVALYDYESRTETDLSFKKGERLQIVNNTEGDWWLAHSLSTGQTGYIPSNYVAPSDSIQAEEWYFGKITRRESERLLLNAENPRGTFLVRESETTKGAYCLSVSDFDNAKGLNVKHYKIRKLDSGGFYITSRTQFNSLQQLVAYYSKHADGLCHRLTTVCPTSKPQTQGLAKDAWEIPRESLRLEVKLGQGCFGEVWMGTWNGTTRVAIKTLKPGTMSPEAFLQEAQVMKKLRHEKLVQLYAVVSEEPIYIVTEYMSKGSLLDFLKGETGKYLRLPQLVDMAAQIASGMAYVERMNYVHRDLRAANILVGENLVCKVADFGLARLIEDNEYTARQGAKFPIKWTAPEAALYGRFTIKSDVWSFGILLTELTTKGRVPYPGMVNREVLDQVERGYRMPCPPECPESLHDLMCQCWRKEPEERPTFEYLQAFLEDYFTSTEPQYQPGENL
Settings: not given
Compound `CC(=O)N(C)c1ccc(Sc2nc(Nc3cc(C)[nH]n3)c3ccccc3n2)cc1` had a pKi of 6.10.

In the case of `Cc1cc(Nc2nc(Sc3ccc(NC(=O)OC(C)(C)C)cc3)nc3ccccc23)n[nH]1`, the pKi was below 5.52.

Regarding `Cc1cc(Nc2nc(Sc3ccc4ccccc4c3)nc3ccccc23)n[nH]1`, the pKi was below 6.30.

Another data set deals with T1, Aurora kinase B. The data set is described as follows: Inhibition of Aurora-B.
Settings: not given
`CCC(=O)Nc1ccc(Sc2nc(Nc3cc(C)[nH]n3)cc(-c3ccncc3)n2)cc1` gave a negative logarithm of the Ki (pKi) of 7.31.

For `CC(=O)N(C)c1ccc(Sc2nc(Nc3cc(C)[nH]n3)c3ccccc3n2)cc1`, the negative logarithm of the Ki (pKi) was 6.98.

`Cc1cc(Nc2nc(Sc3ccc(NC(=O)C4CC4)cc3)nc3ccccc23)n[nH]1` had a negative-log Ki (pKi) of 7.29.

`CCC(=O)Nc1ccc(Sc2nc(Nc3cc(C)n[nH]3)cc(C3CC3)n2)cc1` showed a negative-log Ki (pKi) of 7.23.

In the case of `CC(=O)Nc1ccc(Sc2nccc(Nc3cc(C)[nH]n3)n2)cc1`, the pKi was 6.68.

In the case of `Cc1cc(Nc2nc(Sc3ccc(NC(=O)OC(C)(C)C)cc3)nc3ccccc23)n[nH]1`, the pKi is 6.60.

`CC(=O)Nc1ccc(Sc2nc(Nc3cc[nH]n3)c3ccccc3n2)cc1` had a pKi below 5.96.

`CCC(=O)Nc1ccc(Sc2nc(Nc3cc(C)n[nH]3)cc(N3CCN(C(C)(C)C)CC3)n2)cc1` showed a pKi of 7.96.

Compound `CCC(=O)Nc1ccc(Sc2nc(Nc3cc(C)[nH]n3)cc(-c3cccnc3)n2)cc1` showed a pKi of 7.28.

Regarding `Cc1cc(Nc2nc(Sc3ccc(NS(C)(=O)=O)cc3)nc3ccccc23)n[nH]1`, the pKi is 6.64.

For the compound `CCC(=O)Nc1ccc(Sc2nc(Nc3cc(C)[nH]n3)cc(C(C)(C)C)n2)cc1`, the negative logarithm of the Ki (pKi) was 6.94.

The compound `CCC(=O)Nc1ccc(Sc2nc(Nc3cc(C)[nH]n3)cc(-c3ccccc3)n2)cc1` had a pKi of 6.84.

`CC(=O)Nc1ccc(Sc2nc(C)cc(Nc3cc(C)n[nH]3)n2)cc1` showed a negative-log Ki (pKi) of 6.66.

Turning to `CC(=O)Nc1ccc(Sc2nc(Nc3cc(C4CC4)[nH]n3)c3ccccc3n2)cc1`, the pKi is 7.82.

On to `Cc1cc(Nc2nc(Sc3ccc4ccccc4c3)nc3ccccc23)n[nH]1`, for which the negative-log Ki (pKi) is below 7.40.

Compound `CCC(=O)Nc1ccc(Sc2nc(Nc3cc(C)[nH]n3)cc(N3CCC3)n2)cc1` had a negative-log Ki (pKi) of 7.64.

For `CCC(=O)Nc1ccc(Sc2nc(Nc3cc(C)[nH]n3)c3ccccc3n2)cc1`, the negative-log Ki (pKi) is 7.24.

As to `CCC(=O)Nc1ccc(Sc2nc(C)cc(Nc3cc(C)n[nH]3)n2)cc1`, the negative-log Ki (pKi) is 6.82.

System in another data set: not listed separately
The data set is described as follows: Aqueous solubility at pH 7.4. It counts as physicochemical. As to conditions: buffer.
With `CC(=O)Nc1ccc(Sc2nccc(Nc3cc(C)[nH]n3)n2)cc1`, the solubility came out at 13.8 µg/mL (≈ 40.5 µM).

Turning to `CCC(=O)Nc1ccc(Sc2nc(Nc3cc(C)n[nH]3)cc(N3CCN(C(C)(C)C)CC3)n2)cc1`, the concentration in solution (solubility) was 221 µg/mL (≈ 446 µM).

The compound `CCC(=O)Nc1ccc(Sc2nc(Nc3cc(C)[nH]n3)cc(-c3cccnc3)n2)cc1` showed a solubility below 1 µg/mL.

Consider `CCC(=O)Nc1ccc(Sc2nc(Nc3cc(C)[nH]n3)cc(C(C)(C)C)n2)cc1`, for which the solubility is 11.2 µg/mL (≈ 27.3 µM).

`CC(=O)Nc1ccc(Sc2nc(C)cc(Nc3cc(C)n[nH]3)n2)cc1` had a solubility below 1 µg/mL.

The compound `CCC(=O)Nc1ccc(Sc2nc(C)cc(Nc3cc(C)n[nH]3)n2)cc1` showed a solubility of 4.2 µg/mL (≈ 11.4 µM).

System in a further data set: not listed separately
The data set can be described thus: Half life in rat. As to conditions: in vivo. In kind it is ADME, organism-based.
With `CCC(=O)Nc1ccc(Sc2nc(Nc3cc(C)n[nH]3)cc(N3CCN(C(C)(C)C)CC3)n2)cc1`, the half-life is 8 h.
